# Experiments:
# [1] = target: [3H]Noradenaline reuptake; experiment: in vitro [3H]noradrenaline reuptake inhibition in rat brain tissue; format: biochemical; conditions: means of ≧ 3 separate determinations
# [3H]Dopamine reuptake = in vitro [3H]dopamine reuptake inhibition in rat brain tissue; format: biochemical; conditions: means of ≧ 3 separate determinations
Structure (SMILES),Ki [1] [nM],Ki ([3H]Dopamine reuptake) [nM]
CC(NC(C)(C)C)C(=O)c1cccc(Cl)c1 (stereo not shown) [Bupropion],2590,409
COc1ccc(C(CN(C)C)C2(O)CCCCC2)cc1 (stereo not shown) [Venlafaxine],196,2590

# — patent publication US6372797B1, “Treatment of menstrual function” (Knoll Pharmaceutical Company, priority 1999, dated 2002)
